According to US20130244255A1, “ANTIBODIES DIRECTED TO GPNMB AND USES THEREOF” (priority 2006, published 2013):
“Also recorded” adds a separate entry of the source. Structures can show the parent of a compound that is named as a salt. Where a SMILES comes first, the peptide text is derived from it. [ ]: non-standard residue; d: D form. The star is where a group is joined. Dolaproine = CO[C@@H]([C@@H]1CCCN1)[C@@H](C)C(=O)O; Dil = CC[C@H](C)[C@H](NC)[C@@H](CC(=O)O)OC; X1 = C[C@@H](N*)[C@@H](O)c1ccccc1; NMeV = CN[C@H](C(=O)O)C(C)C

What was measured:
[1] = test system: SK-MEL-5 human melanoma xenograft; test: SK-MEL-5 human melanoma xenograft in athymic mice; format: in vivo
Description: (§1) The tumor inhibitory activity of the CR011-MMAE immunoconjugate was measured in an anti-tumor xenograft model using athymic mice, according to published methods (see Geran et al., Cancer Chemother. Rep. 3:1-104 (1972)). […] When tumors became established (10-20 days), the animals were pair-matched into groups (n=6 mice/group), and treatment was administered by intravenous injection (tail vein).
(§2) The SK-MEL-2 human melanoma (ATCC #HTB-68) was derived from a metastatic site (skin of thigh) of a person with malignant melanoma, and the SK− MEL-5 human melanoma (ATCC #HTB-70) was derived from a metastatic site (axillary lymph node) of a person with malignant melanoma (see Fogh et al., J. Natl. Cancer Inst. 59: 221-226 (1977)). Both cell lines were obtained from the American Type Culture Collection.
(§3) The effects of treatment were monitored by repetitive tumor measurements across 2 diameters with Vernier calipers; tumor size (in mg) was calculated using a standard formula, (W^2×L)/2, assuming a specific gravity of 1.0. Tumor size and body weights were assessed twice weekly. Mice were examined daily, however, and moribund animals were humanely euthanized if clinical indications of excessive pain or distress were noted (i.e., prostration, hunched posture, paralysis/paresis, distended abdomen, ulcerations, abscesses, seizures, and/or hemorrhages) Animals with tumors exceeding 2,000 mg were removed from the study and euthanized humanely.
Soon after the commencement of treatment with paclitaxel, however, significant tumor growth inhibition was observed (P≦0.039) at day 3 after treatment began, and this anti-tumor effect continued, producing 100% growth inhibition (stasis). The responses of SK-MEL-5-bearing test animals to vinblastine and paclitaxel were short-lived. After cessation of treatment at the maximally tolerated doses, tumors resumed rapid, progressive growth.

[2] = test system: SK-MEL-2 human melanoma xenograft; test: SK-MEL-2 human melanoma xenograft in athymic mice; format: in vivo
Description: Five- to 6-week old athymic mice (CD-1 nu/nu females), used for human tumor xenografts, were obtained from Harlan Laboratories (Indianapolis, Ind.). Animals were housed in specific pathogen-free conditions, according to the guidelines of the Association for Assessment and Accreditation of Laboratory Animal Care International (AAALAC International). Test animals were provided pelleted food and water ad libitum and kept in a room with conditioned ventilation (HVAC), temperature (22°±2° C.), relative humidity (55%±15%), and photoperiod (12 hr). All studies were carried out with approved institutional animal care and use protocols.
as §1, §2, §3
No apparent or statistically significant anti-tumor effects were observed. […] In preliminary studies, tumor regression was complete and was not followed by regrowth of the tumor despite lengthy observation periods (up to 200 days).

[3] = test system: UACC-62; test: Anti-GPNMB antibody mediated indirect cell killing (saporin secondary conjugate, colony count); format: cell-based, human; conditions: 5-FU 600 uM; antibodies with saporin toxin-conjugated secondary antibody
Description: UACC-62, a GPNMB antigen expressing cell line, and TK10, a non-expressing cell line were plated onto flat bottom 96-well tissue culture plates (Becton Dickinson, Franklin Lakes, N.J., USA) at a density of 3000 cells per well. Once the cells reached ˜25% confluency, 100 ng/well of secondary antibody-toxin conjugate (goat anti-human IgG-saporin; Advanced Targeting Systems, San Diego, USA, HUM-ZAP; cat #IT-22) was added. Anti-GPNMB MAbs 2.10.2, 2.22.1, 1.15.1 or isotype control mAb (pK16.3) were added to each well at a final concentration of 10 or 50 μg/mL. An anti-EGFR monoclonal antibody (MS-269-PABX, NeoMarkers, Fremont, Calif., USA) was used as a positive primary antibody control. Chemotherapy reagent 5-FU at 600 uM was used as a positive reagent control. On day 5, the cells were trypsinized, transferred to 6-well tissue culture plates and incubated at 37° C. Plates were examined daily and between 8-10 days, all plates were Giemsa stained and colonies were counted.

[4] = target: T1, CG56972/GPNMB (Homo sapiens, UniProt Q14956); test: FACS binding of CR011 IgG1 and IgG2 on SK-MEL-2 cells
T1 construct: endogenous in cells; host or cells: UACC-62 and a panel of melanoma lines (A5); SK-MEL-2 (A52); SK-Mel-5 (A63)
T1 sequence (Q14956 23-572): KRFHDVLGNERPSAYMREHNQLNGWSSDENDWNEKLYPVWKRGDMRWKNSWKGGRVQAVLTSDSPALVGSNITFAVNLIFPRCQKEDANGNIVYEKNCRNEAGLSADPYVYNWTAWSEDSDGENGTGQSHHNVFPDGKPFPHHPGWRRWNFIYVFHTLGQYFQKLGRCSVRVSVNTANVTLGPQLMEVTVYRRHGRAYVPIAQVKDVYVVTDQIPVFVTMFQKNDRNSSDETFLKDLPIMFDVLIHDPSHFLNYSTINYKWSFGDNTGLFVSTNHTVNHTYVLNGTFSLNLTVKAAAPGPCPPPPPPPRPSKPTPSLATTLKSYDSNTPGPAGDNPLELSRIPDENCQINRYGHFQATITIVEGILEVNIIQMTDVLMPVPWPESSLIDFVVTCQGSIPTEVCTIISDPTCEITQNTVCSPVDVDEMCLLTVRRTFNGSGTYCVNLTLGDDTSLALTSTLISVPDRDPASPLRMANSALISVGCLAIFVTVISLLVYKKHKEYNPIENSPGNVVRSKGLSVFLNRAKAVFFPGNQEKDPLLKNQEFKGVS

[5] = test system: SK-Mel-2 cells; test: ADCC assay with human PBMC (DELFIA EuTDA cytotoxicity); format: cell-based; conditions: 30 to 100 fold PBMC; 2, 5, 10 μg/200 μl mAb
Description: Human PBMC were isolated from whole blood using a Ficoll-Plaque. Briefly, in a 50 mL tube, 15 mL of PBS was added to 20 mL of whole blood which was underlayed with 10 mL Ficoll-Plaque and the tube was centrifuged at 2000 RPM. Mononuclear cells were collected from the interface and washed 3 times with PBS. The ADCC assay was carried out in a 96 well plate using a fluorescence assay for cytolysis from Perkin-Elmer (DELFIAEuTDA Cytotoxic assay). The procedure is based on loading target cells with a fluorescence enhancing ligand (BATDA, bis (acetoxymethyl) terpyridine—dicarboxylate). The hydrophic ligand penetrates the membrane quickly. Within the cell the esterbonds are hydrolyzed to form a hydrophilic ligand (TDA, terpyridine—dicarboxylic acid) which can no longer pass through the membrane. After cytolysis the ligand is released and introduced to the Europium solution. The europium and the ligand form a highly fluorescent and stable chelate (EuTDA). Fluorescence intensity are recorded using excitation and emission wavelengths as λex=340 nm and λem=613 nm, respectively.

Molecule: CC(=O)O[C@H]1C(=O)[C@@]2(C)[C@H]([C@H](OC(=O)c3ccccc3)[C@]3(O)C[C@H](OC(=O)[C@H](O)[C@@H](NC(=O)c4ccccc4)c4ccccc4)C(C)=C1C3(C)C)[C@]1(OC(C)=O)CO[C@@H]1C[C@@H]2O [Paclitaxel, paclitaxel, reference compound]
- growth inhibition (stasis) ([1]; paclitaxel 24 mg/kg i.v. q2d×4): 100%
- long-term, tumor-free survivor ([1]; paclitaxel group): One
- growth inhibition (tumor stasis) ([2]; paclitaxel i.v. 24 mg/kg q2d×4, for approximately 2 weeks after treatment commenced): 100%

Molecule: O=c1[nH]cc(F)c(=O)[nH]1 [Mab 5-FU]
- effect on UACC-62 cells (in words) [3]: complete killing

Molecule: CR011 IgG1 mAb: CR011 mAb 1.15.1 switched to IgG1 constant region; heavy chain SEQ ID NO: 395
- FACS shift on SK-MEL-2 cells vs isotype control mAbs [4]: comparable FACS shifts
- cytolysis of SK-MEL-2 cells (ADCC) [5]: caused cytolysis of SK-MEL-2 cells in a dose dependent manner

Molecule: CC[C@]1(O)C[C@@H]2CN(CCc3c([nH]c4ccccc34)[C@@](C(=O)OC)(c3cc4c(cc3OC)N(C)[C@H]3[C@@](O)(C(=O)OC)[C@H](OC(C)=O)[C@]5(CC)C=CCN6CC[C@]43[C@@H]65)C2)C1 [Vinblastine, vinblastine sulfate, reference compound]
- anti-tumor effect (in words) ([1]; i.v., CR011-vcMMAE 1.25 to 20 mg/kg q4d×4, vinblastine […] q4d×4): noticeable, but not significant tumor growth inhibition
- anti-tumor effect (in words) ([2]; i.v., CR011-vcMMAE 20, 10, 5 or 2.5 mg/kg q4d×4, vinblastine […] q4d×4): very slight, but not significant, anti-tumor effect

Molecule: CC[C@H](C)[C@@H]([C@@H](CC(=O)N1CCC[C@H]1[C@H](OC)[C@@H](C)C(=O)N[C@H](C)[C@@H](O)c1ccccc1)OC)N(C)C(=O)[C@@H](NC(=O)[C@@H](NC)C(C)C)C(C)C [monomethylauristatin E, reference compound] (H-[NMeV]V[Dil][Dolaproine]-X1)
- tumor growth inhibition by components of the immunoconjugate (in words) ([2]; doses identical to that contained in the intact immunoconjugate (5 mg/kg q4d×4)): lack of responses; also recorded: lack of tumor growth inhibition
